Laboratory results: patent US20220153780A1, “SALT FORMS OF S-(N, N-DIETHYLCARBAMOYL)GLUTATHIONE” (Tonix Pharma Holdings Limited, priority 2019, published 2022)
Entries after “also recorded” stand apart in the source; their conditions may differ.

Tests used:
Type in all cases: physicochemical
[1] = Stability studies, one month storage at controlled temperature and humidity, XRPD
Procedure: Approximately 50 mg of the anhydrous carbamathione lysine salt was placed in a glass vial crimped with a PTFE/silicone septum and stored at the desired temperature and humidity for one month. Controlled humidity was realized employing saturated solutions of salts: NaCl for 75% RH at 40° C. and NaBr for 60% RH at 25° C. After storage, the samples were analyzed by XRPD analysis. Each stability test was performed in duplicate.

[2] = Water solubility observed in slurry experiment in water; conditions: room temperature; equimolar L-lysine adduct
Procedure: (§1) Carbamathione (50 mg) and one equivalent of L-Lysine were weighed in an 8-mL glass vial. Water (1-2 mL) was added and the mixture was allowed to stir for 24 hours. The equimolar mixture of carbamathione and L-Lysine was soluble in water and no precipitate was observed after 24 hours of stirring. The solution was left to evaporate at high temperature (60° C.) and an off-white solid was isolated. XRPD analysis confirmed the recovery of new derivative TNX1001-LLYS-NP01 (FIG. 15).
The synthesis of the new derivative, TNX1001-LLYS-NP01, was carried out to facilitate its complete characterization. TNX1001-SM (150 mg) and L-Lysine (1 eq., 54 mg) were accurately weighed in a vial equipped with a magnetic stirring bar. H2O (3 ml) was added and the mixture was stirred at room temperature for 4 hours until a clear solution was obtained. The solution was filtered through a 0.45 μm RC-filter and the filtrate was evaporated at high temperature (60° C.). The recovered off-white solid was compared with the sample that was obtained from the slurry experiments in water by XRPD analysis to confirm the recovery of desired derivative (FIG. 26). The product was completely characterized using the methods outlined in Table 8 (see FIGS. 27-33).

[3] = Dissolution temperature in buffers (Crystal16) and estimated solubility at 25° C.
Procedure: Three different buffer solutions were prepared according to European Pharmacopoeia procedures (pH 1.2), or by diluting commercially available concentrate buffer solutions (pH 4.5 and 6.8).
Phosphate buffer at pH 6.8 was prepared by diluting a commercially available concentrate solution (Reagecon) with HPLC grade water. The final pH was adjusted using a 1 M NaOH solution.
Acetate buffer at pH 4.5 was prepared by diluting a commercially available concentrate solution (Reagecon) with HPLC grade water. The final pH was adjusted using concentrated acetic acid and a 1 M NaOH solution.
A buffer at pH 1.2 was prepared by mixing NaCl (0.2 M, 125 mL) and HCl (0.2 M, 212.5 mL) solutions followed by adjusting the volume to 500 mL. The pH was adjusted with a 1 M NaOH solution.
The determination of the dissolution temperature was performed in the automatic reactor system Crystal16. The system allows for careful control of the temperature and is equipped with a turbidimeter enabling the detection of the complete dissolution of the solid. The proper amount of compound was accurately weighted in a 1.5 mL vial equipped with a magnetic stirring bar. The selected buffer solution was pre-cooled in a refrigerator and the proper volume was added to the vial. The suspension was placed in the automatic reactor system pre-cooled at 10° C. and stirred at 600 rpm. The temperature was kept constant for 5 minutes to allow the system to equilibrate. The temperature was then increased at 0.5° C./min until a clear solution was obtained. For each pH, four solutions with increasing concentration were prepared and subjected to the same temperature program.
Although this is incorrect from a theoretical point of view, the closeness of the experimental value at 24° C. limited the error made by using this simple approximation.
Although this is incorrect from a theoretical point of view, the closeness of the experimental value at 26° C. limited the error made by using this simple approximation.

[4] = Solid form stability by XRPD (ambient conditions, humidity, drying)
Procedure: as §1
After 24 hours of stirring, the solid was collected and analyzed by XRPD, and a new diffraction pattern was observed (FIG. 18). This new pattern was labeled as TNX1001-LLYS-NP02. […] After the drying step, the sample was exposed to humidity for 24 hours and the diffractogram acquired again.
From the experiments carried out with L-lysine in organic media, a second new diffraction pattern was also observed, in particular when an equimolar mixture of TNX1001-SM and L-lysine co-former was slurried at room temperature for 24 hours in Methanol or Dichloromethane (TNX1001-LLYS-NP02).

[5] = Dynamic vapor sorption (DVS) analysis
Procedure: The anhydrous carbamathione lysine salt (TNX1001-LLYS-NP01) was subjected to dynamic vapor sorption (DVS) analysis (FIG. 35). […] Similarly, the desorption curves display a clear decrease in mass between 30% and 20% RH. This behavior is consistent with a compound forming a hydrate species. Additionally, based on the water uptake of approximately 6.1% w/w at 70% RH, the hydrated form of the salt is likely a dihydrate species (FIG. 36).
The sorption/desorption cycle was performed twice.

Question: With `CCN(CC)C(=O)SC[C@H](NC(=O)CC[C@H](N)C(=O)O)C(=O)NCC(=O)O.NCCCC[C@H](N)C(=O)O` [TNX1001-LLYS-NP01] as the compound, how does the “solid state stability (XRPD)” value ([1]; one month at 25° C. and 60% RH) read?
Answer: stable

Question: And the “solid state stability (XRPD)” value ([1]; one month at 40° C. and 75% RH)?
Answer: stable

Question: And the “water solubility as compared to free carbamathione” value [2]?
Answer: clear improvement

Question: And the “Solubility TNX1001-LYS” value ([3]; pH 1.2)?
Answer: Not stable. TNX1001

Question: What about the stability in buffer ([3]; pH 1.2 (NaCl/HCl buffer), converted into the parent carbamathione) of the same compound?
Answer: not stable

Question: And the Tdiss. ([3]; pH 1.2 buffer, Conc. TNX1001-LYS 297 mg/mL (79 after dilution))?
Answer: Dissolve and re-precipitate

Question: And the Tdiss. ([3]; pH 1.2 buffer, Conc. TNX1001-LYS 349 mg/mL, after dilution to 93 mg/mL)?
Answer: Dissolves above 80 °C

Question: And the Tdiss. ([3]; pH 1.2 buffer, Conc. TNX1001-LYS 400 mg/mL, after dilution to 107 mg/mL)?
Answer: Dissolves above 80 °C

Question: What about the Tdiss. ([3]; pH 1.2 buffer, Conc. TNX1001-LYS 455 mg/mL, after dilution to 121 mg/mL) of the same compound?
Answer: Dissolves above 80 °C

Question: And the “solubility increase compared with free carbamathione” value ([3]; pH 4.5, 25° C.)?
Answer: approximately 17%

Question: And the “Solubility TNX1001-LYS” value ([3]; pH 4.5, 25° C., estimated by linear approximation, equivalent amount of TNX1001 dissolved)?
Answer: 299 mg/mL of TNX1001

Question: What about the Tdiss. ([3]; pH 4.5 acetate buffer, Conc. TNX1001-LYS 249 mg/mL) of the same compound?
Answer: <10 °C

Question: And the Tdiss. ([3]; pH 4.5 acetate buffer, Conc. TNX1001-LYS 299 mg/mL)?
Answer: 16 °C

Question: And the Tdiss. ([3]; pH 4.5 acetate buffer, Conc. TNX1001-LYS 356 mg/mL)?
Answer: 26 °C

Question: What about the Tdiss. ([3]; pH 4.5 acetate buffer, Conc. TNX1001-LYS 401 mg/mL) of the same compound?
Answer: 33 °C

Question: And the “solubility increase compared with free carbamathione” value ([3]; pH 6.8, 25° C.)?
Answer: approximately 10%

Question: And the “Solubility TNX1001-LYS” value ([3]; pH 6.8, 25° C., estimated by linear approximation, equivalent amount of TNX1001 dissolved)?
Answer: 255 mg/mL of TNX1001

Question: And the Tdiss. ([3]; pH 6.8 phosphate buffer, Conc. TNX1001-LYS 199 mg/mL)?
Answer: <10 °C

Question: And the Tdiss. ([3]; pH 6.8 phosphate buffer, Conc. TNX1001-LYS 223 mg/mL)?
Answer: <10 °C

Question: And the Tdiss. ([3]; pH 6.8 phosphate buffer, Conc. TNX1001-LYS 340 mg/mL)?
Answer: 24 °C

Question: And the Tdiss. ([3]; pH 6.8 phosphate buffer, Conc. TNX1001-LYS 397 mg/mL)?
Answer: 33 °C

Question: And the “stability of the solid form under ambient conditions (XRPD)” value ([4]; after 24 hours and up to 4 days)?
Answer: good stability; also recorded: stable

Question: And the “solid form after exposure of the dried sample to humidity (XRPD)” value ([4]; approximately 24 hours, ambient conditions)?
Answer: converted spontaneously to initial form TNX1001-LLYS-NP02; also recorded: reconversion of the NP01 form into the NP02 form

Question: What about the “water uptake (DVS)” value ([5]; at 70% RH) of the same compound?
Answer: approximately 6.1 % w/w

Question: What about the “water uptake and water release over two sorption/desorption cycles” value ([5]; hydrated and anhydrous species) of the same compound?
Answer: reversibly
